Measured values reported in US20210038607A1, “OXADIAZOLYLTHIOPHENE DERIVATIVES USEFUL AS HISTONE DEACETYLASE INHIBITORS” (Karus Therapeutics Limited, priority 2018, published 2021).

How the values were obtained:
[1] = test system: acetylated α-tubulin in A549 lung adenocarcinoma cells; assay: Acetylated α-tubulin in-cell western (ICW) assay; type: cell-based; settings: Homo sapiens, 16 h exposure, relative to 40 μM scriptaid positive control, read-out: EC50 Ac-α-tubulin, A549 cells
Description: (§1) Acetylated α-Tubulin and Histone H3 in-Cell Western (ICW) Assays
(§2) A549 cells were maintained in DMEM (Life Technologies)+10% FBS+2 mM glutamine & penicillin (10 μg/mL) and streptomycin ([…]. 10,000 A549 cells per well were plated into 96 well tissue culture plates (Corning) and incubated at 37° C. overnight in a humidified atmosphere containing 5% CO2 prior to addition of compounds. Compounds (dissolved in 100% DMSO) were diluted into cell culture media at 2× final assay concentration. 2× compound or DMSO (negative control) were added to cells (final DMSO concentration 0.4%). Untreated control wells received media. For acetylated α-tubulin assays, 40 μM scriptaid was used as a positive control. For acetylated histone H3 assays, 40 μM Trichostatin A (TSA) was used as a positive control. Cells were exposed to compound at 37° C. in a humidified atmosphere containing 5% CO2 for 16 h.
(§3) Measurement of the impact of compounds on levels of acetylated α-tubulin and histone H3 was performed using specific antibodies and near-infrared immunofluorescent dyes. Briefly, media was removed from wells of assay plates. Cells were washed once with PBS and fixed in 3.7% formaldehyde PBS solution at room temperature for 20 min. Cells were then permeabilised by washing 5 times in 0.1% triton-X-100 PBS at room temperature with gentle agitation for 5 min per wash. Non-specific antibody staining was blocked by the addition of Odyssey blocking buffer (Li-Cor) for 1.5 h at room temperature with gentle agitation. Cells were then incubated with primary antibody (mouse monoclonal anti-acetylated α-tubulin (clone 6-11B-1), Sigma or rabbit polyclonal anti-acetylated histone H3, Millipore) diluted in Odyssey blocking buffer at 4° C. with gentle shaking overnight (no antibody control and secondary antibody only wells were incubated with Odyssey blocking buffer only). Cells were washed five times with 0.1% tween PBS and labelled with secondary antibody (IR dye 800CW-conjugated goat anti mouse IgG or -goat anti rabbit IgG, Li-Cor) and cell stains Sapphire700 (Li-Cor) and Draq5 (Biostatus) diluted in Odyssey blocking buffer at room temperature in the dark with gentle shaking for 1 h (no antibody control wells were incubated with Odyssey blocking buffer only and secondary antibody only with diluted secondary antibody but no cell stains). Cells were washed with 0.1% Tween PBS five times and scanned using a Li-Cor Odyssey SA plate reader in 700 and 800 nm channels. Acetylated α-tubulin or histone H3 signal was normalised to cell number using the cell stain signal. Percentage increase in acetylated α-tubulin or histone H3 after compound treatment over the mean of DMSO treated controls, relative to scriptaid and TSA positive controls, respectively was calculated. EC50 values were calculated using GraphPad Prism software and nonlinear regression with 0% bottom and 100% top constraints.

[2] = test system: acetylated histone H3 in A549 lung adenocarcinoma cells; assay: Acetylated histone H3 in-cell western (ICW) assay; type: cell-based; settings: Homo sapiens, 16 h exposure, relative to 40 μM Trichostatin A positive control, read-out: EC50 Ac-histone H3, A549 cells
Description: as §1, §2, §3

CS(=O)(=O)c1ccc(N(Cc2ccc(-c3noc(C(F)(F)F)n3)s2)c2cnccn2)nn1 [Example DL, 6-Methanesulfonyl-N-(pyrazin-2-yl)-N-({5-[5-(trifluoromethyl)-1,2,4-oxadiazol-3-yl]thiophen-2-yl}methyl)pyridazin-3-amine]
EC50 [1]: 1 to 10 µM | EC50 [2]: ≥ 10 µM

FC(F)(F)c1ccc(N(Cc2ccc(-c3noc(C(F)(F)F)n3)s2)c2cnccn2)nn1 [Example DH, N-(Pyrazin-2-yl)-6-(trifluoromethyl)-N-({5-[5-(trifluoromethyl)-1,2,4-oxadiazol-3-yl]thiophen-2-yl}methyl)pyridazin-3-amine]
EC50 [1]: ≥ 10 µM | EC50 [2]: ≥ 10 µM

CS(=O)(=O)c1nccc(N(Cc2ccc(-c3noc(C(F)(F)F)n3)s2)c2cnccn2)n1 [Example CE, 2-Methanesulfonyl-N-(pyrazin-2-yl)-N-({5-[5-(trifluoromethyl)-1,2,4-oxadiazol-3-yl]thiophen-2-yl}methyl)pyrimidin-4-amine]
EC50 [1]: ≥ 10 µM | EC50 [2]: ≥ 10 µM

FC(F)(F)c1nc(-c2ccc(CN(c3cnccn3)c3ccc(N4CCCC4)nn3)s2)no1 [Example DI, N-(Pyrazin-2-yl)-6-(pyrrolidin-1-yl)-N-({5-[5-(trifluoromethyl)-1,2,4-oxadiazol-3-yl]thiophen-2-yl}methyl)pyridazin-3-amine]
EC50 [1]: 1 to 10 µM | EC50 [2]: ≥ 10 µM
